Data on one compound can be found in ChEMBL document CHEMBL4304783, “Discovery of a Novel Selective Dual Peroxisome Proliferator-Activated Receptor α/δ Agonist for the Treatment of Primary Biliary Cirrhosis” (ACS Med Chem Lett, 2019).

Data set [1] addresses T1, Peroxisome proliferator-activated receptor gamma (Homo sapiens, UniProt P37231).
T1 sequence (P37231 whole entry): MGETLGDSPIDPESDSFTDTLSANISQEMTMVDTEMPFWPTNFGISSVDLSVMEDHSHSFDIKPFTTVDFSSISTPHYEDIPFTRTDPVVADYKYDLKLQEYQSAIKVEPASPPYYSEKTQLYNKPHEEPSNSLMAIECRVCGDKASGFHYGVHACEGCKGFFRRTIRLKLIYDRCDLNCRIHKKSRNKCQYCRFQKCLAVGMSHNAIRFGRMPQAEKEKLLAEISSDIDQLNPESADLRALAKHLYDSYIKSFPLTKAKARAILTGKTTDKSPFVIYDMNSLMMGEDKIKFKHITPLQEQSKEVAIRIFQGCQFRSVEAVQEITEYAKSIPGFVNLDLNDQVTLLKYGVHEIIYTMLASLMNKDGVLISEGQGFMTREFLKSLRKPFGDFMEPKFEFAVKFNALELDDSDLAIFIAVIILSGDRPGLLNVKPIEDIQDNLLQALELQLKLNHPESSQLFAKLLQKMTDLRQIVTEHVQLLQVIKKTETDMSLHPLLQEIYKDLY
Nature of the data set: Agonist activity at PPARgamma (unknown origin) incubated for 3 to 16 hrs by pathhunter nuclear hormone receptor assay.

The target in data set [2] is T2, Peroxisome proliferator-activated receptor gamma (Homo sapiens) (UniProt P37231).
T2 sequence (whole entry): T1 sequence (P37231 whole entry)
Nature of the data set: Agonist activity at PPARgamma (unknown origin) incubated for 3 to 16 hrs by pathhunter nuclear hormone receptor assay relative to Troglitazone.

Data set [3] is described as follows: Stability in human plasma assessed as remaining compound incubated for 2 hrs. The settings on record: read-out: Stability. Format: ADME, cell-free.
Data set [4] in a line: Stability in rat plasma assessed as remaining compound incubated for 2 hrs. Format: ADME, cell-free. To be noted: read-out: Stability.
Data set [5] can be described thus: Protein binding in human plasma at 2 uM incubated for 4 hrs by LC-MS/MS analysis. Format: ADME, cell-free.
Data set [6] can be described thus: Apparent permeability across apical to basolateral side in human Caco2 cells at 2 uM incubated for 120 mins by LC-MS/MS analysis. Format: ADME, cell-based. To be noted: Caco-2. (Caco-2 cells form a polarised layer with tight junctions and transporters.)
The target in the next data set is Cytochrome P450 2C9 (Homo sapiens, UniProt P11712). Nature of the data set: Inhibition of CYP2C9 in human liver microsomes using diclofenac as substrate incubated for 10 mins followed by substrate addition further incubated for 10 mins by LC-MS/MS analysis. Format: ADME. Background: Liver microsomes are vesicles of endoplasmic reticulum, rich in cytochrome P450 enzymes.
Cytochrome P450 2C9, sequence (P11712 whole entry): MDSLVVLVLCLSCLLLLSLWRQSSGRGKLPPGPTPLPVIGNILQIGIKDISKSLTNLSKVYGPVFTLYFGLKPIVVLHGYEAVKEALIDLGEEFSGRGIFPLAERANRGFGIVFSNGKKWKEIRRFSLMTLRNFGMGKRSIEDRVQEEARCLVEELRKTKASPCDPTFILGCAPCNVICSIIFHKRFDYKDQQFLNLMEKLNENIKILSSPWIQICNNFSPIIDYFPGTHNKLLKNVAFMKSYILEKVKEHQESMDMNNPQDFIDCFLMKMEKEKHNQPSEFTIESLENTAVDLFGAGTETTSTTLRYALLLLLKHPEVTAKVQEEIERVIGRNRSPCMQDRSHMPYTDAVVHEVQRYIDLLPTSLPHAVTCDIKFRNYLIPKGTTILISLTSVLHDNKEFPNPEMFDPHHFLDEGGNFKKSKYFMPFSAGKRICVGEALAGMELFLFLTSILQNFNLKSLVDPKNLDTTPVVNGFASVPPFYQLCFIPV

A further data set concerns the target Cytochrome P450 2C19 (Homo sapiens, UniProt P33261). Nature of the data set: Inhibition of CYP2C19 in human liver microsomes using S-mephenytoin as substrate incubated for 10 mins followed by substrate addition further incubated for 10 mins by LC-MS/MS analysis. Format: ADME.
Another data set addresses Cytochrome P450 2D6 (Homo sapiens, UniProt P10635). Nature of the data set: Inhibition of CYP2D6 in human liver microsomes using dextromethorphan as substrate incubated for 10 mins followed by substrate addition further incubated for 10 mins by LC-MS/MS analysis. Format: ADME.
The target of the next data set is Cytochrome P450 3A4 (Homo sapiens, UniProt P08684). Nature of the data set: Inhibition of CYP3A4 in human liver microsomes using midazolam as substrate incubated for 10 mins followed by substrate addition further incubated for 10 mins by LC-MS/MS analysis. Format: ADME.
Cytochrome P450 3A4, sequence (P08684 whole entry): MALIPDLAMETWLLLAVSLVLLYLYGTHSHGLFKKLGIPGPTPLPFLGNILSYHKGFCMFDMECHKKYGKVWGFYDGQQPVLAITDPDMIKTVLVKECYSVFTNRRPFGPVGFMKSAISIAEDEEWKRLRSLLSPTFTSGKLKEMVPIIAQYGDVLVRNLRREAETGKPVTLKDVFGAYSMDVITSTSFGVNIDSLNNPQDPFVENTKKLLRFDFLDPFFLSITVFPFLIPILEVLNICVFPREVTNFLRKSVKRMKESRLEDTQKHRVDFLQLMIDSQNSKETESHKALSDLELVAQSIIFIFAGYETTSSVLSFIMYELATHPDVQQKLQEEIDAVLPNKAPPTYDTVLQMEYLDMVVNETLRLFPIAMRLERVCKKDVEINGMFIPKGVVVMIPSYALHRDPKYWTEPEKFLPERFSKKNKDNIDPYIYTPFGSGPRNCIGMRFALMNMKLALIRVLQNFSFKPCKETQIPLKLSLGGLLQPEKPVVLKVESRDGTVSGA
The nature of data set [7]: Half life in C57BL/6J mouse at 1 mg/kg, iv measured upto 24 hrs by LC-MS/MS analysis. Format: ADME, organism-based. To be noted: in vivo.
A short description of data set [8]: AUC (0 to last) in Sprague-Dawley rat at 1 mg/kg, iv measured upto 24 hrs by LC-MS/MS analysis. Format: ADME, organism-based. The settings on record: in vivo. Further details: dose 1 mg/kg, route intravenous, time 0 - last.
The test system of data set [9] is Rattus norvegicus. Nature of the data set: Hepatoprotective activity in Sprague-Dawley rat assessed as reduction in ANIT-stimulated inflammatory score at 3 mg/kg, ig administered for 8 days by hematoxylin and eosin staining based mopho-metric analysis relative to control. Also noted: scale not given: the % may be the effect or the level left. Format: functional.

The subject of data set [10] is Rattus norvegicus. Nature of the data set: Hepatoprotective activity in Sprague-Dawley rat assessed as reduction in ANIT-stimulated fibrosis area at 3 mg/kg, ig administered for 8 days by hematoxylin and eosin staining based mopho-metric analysis relative to control. Format: functional. Further details: scale not given: the % may be the effect or the level left.
A further data set addresses T3, Bile acid receptor (Homo sapiens, UniProt Q96RI1).
T3 sequence (Q96RI1 whole entry): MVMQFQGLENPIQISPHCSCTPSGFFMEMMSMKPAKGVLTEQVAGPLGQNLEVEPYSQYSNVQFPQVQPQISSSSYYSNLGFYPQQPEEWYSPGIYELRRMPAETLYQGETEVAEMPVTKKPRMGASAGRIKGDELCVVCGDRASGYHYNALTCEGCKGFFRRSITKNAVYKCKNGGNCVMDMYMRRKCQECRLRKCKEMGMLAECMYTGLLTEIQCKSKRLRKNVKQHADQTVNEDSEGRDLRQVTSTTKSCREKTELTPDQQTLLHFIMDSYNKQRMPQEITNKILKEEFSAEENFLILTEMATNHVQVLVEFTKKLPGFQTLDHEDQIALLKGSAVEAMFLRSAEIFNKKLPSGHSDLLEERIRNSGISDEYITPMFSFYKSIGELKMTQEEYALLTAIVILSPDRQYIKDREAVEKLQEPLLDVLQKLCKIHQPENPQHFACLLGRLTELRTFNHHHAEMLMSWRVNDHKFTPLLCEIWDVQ
Nature of the data set: Binding affinity to human recombinant GST-tagged FXR LBD (193-472 residues) expressed in baculovirus infected insect cells incubated for 1 hr by luminometry.

A short description of data set [11]: Oral bioavailability in Sprague-Dawley rat at 10 mg/kg measured upto 24 hrs by LC-MS/MS analysis. To be noted: in vivo.

Cytochrome P450 2C19, sequence (P33261 whole entry): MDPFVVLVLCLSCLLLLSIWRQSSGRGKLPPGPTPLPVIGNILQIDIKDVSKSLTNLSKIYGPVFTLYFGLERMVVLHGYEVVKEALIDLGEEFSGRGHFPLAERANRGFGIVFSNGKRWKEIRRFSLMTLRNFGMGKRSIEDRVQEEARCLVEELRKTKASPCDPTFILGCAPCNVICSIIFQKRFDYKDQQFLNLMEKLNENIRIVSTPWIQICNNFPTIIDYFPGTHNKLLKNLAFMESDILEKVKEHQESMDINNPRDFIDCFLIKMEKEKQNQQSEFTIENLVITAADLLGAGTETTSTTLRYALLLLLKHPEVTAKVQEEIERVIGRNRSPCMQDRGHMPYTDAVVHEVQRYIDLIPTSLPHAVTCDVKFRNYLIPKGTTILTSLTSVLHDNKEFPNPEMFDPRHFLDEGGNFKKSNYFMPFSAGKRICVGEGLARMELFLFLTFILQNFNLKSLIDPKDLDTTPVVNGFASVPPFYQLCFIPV
Cytochrome P450 2D6, sequence (P10635 whole entry): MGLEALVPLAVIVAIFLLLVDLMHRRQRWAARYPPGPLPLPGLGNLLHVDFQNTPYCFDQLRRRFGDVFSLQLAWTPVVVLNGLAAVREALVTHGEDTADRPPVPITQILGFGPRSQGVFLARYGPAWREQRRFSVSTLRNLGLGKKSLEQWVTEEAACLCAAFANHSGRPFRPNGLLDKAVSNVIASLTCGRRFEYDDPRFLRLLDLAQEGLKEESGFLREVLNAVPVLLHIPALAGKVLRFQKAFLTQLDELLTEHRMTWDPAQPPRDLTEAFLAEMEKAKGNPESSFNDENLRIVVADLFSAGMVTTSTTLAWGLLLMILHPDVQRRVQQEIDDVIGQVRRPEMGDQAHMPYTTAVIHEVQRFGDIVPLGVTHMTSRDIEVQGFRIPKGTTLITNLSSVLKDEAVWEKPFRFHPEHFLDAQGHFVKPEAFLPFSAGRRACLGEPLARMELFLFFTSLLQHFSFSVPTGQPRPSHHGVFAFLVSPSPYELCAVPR

What is called EC50 is the midpoint of the concentration-response curve. As usually defined, the fraction unbound is free concentration divided by total concentration. Usually Papp A→B stands for how fast a substance crosses the layer from the apical side. As usually defined, the IC50 is the point on the concentration scale where inhibition reaches its midpoint. By half-life is commonly meant the time needed for the level to fall by half in the phase considered. What is called AUC(0-t) is exposure summed from dosing to a finite time, without extrapolation to infinity. As a reminder, the bioavailability is the share of a dose that reaches the circulation, judged against a reference dose that is usually intravenous. As to `Cc1cc(Cc2cc(-c3ccc(Br)cc3)on2)cc(C)c1OC(C)(C)C(=O)O`, the response in [1] was half-maximal at 2.94 µM (EC50). The Activity in data set [2] was 110%; in the data set on Rattus norvegicus [9], 30%; in the data set on Rattus norvegicus [10], 28%. Further, the remaining at 2 h stood at 88% in data set [3] and 96% in [4]. In data set [5], this compound showed a fraction unbound at 4 h, 2 µM below 0.001. Besides, the apparent permeability from apical to basolateral (Papp A→B) at 2 h, 2 µM in data set [6] is 0.5 ×10⁻⁶ cm/s. The IC50 was 20 µM on Cytochrome P450 2C9; above 50 µM against Cytochrome P450 2C19; above 50 µM against Cytochrome P450 2D6; above 50 µM on Cytochrome P450 3A4; above 50 µM at Bile acid receptor. The half-life in [7] is 3.6 h. The compound further showed an AUC(0-t) at 24 h in data set [8] of 105 µM·h. Besides, the bioavailability in data set [11] came to 53.3%.
